Entries after “also recorded” stand apart in the source; their conditions may differ. Read-outs that look alike come from different tables or passages of the source.
Columns and labels:
[1] = test system: HEK293T Tau RD P301S FRET biosensors; experiment: P2-induced tau aggregation in Tau P301S FRET biosensors (microscopy, flow cytometry); assay type: cell-based
Source text: The tau biosensors were HEK293T cells, with stably expressed tau repeat domains with disease-associated mutation (P301S) fused to either CFP or YFP (HEK293T Tau RD P301S FRET biosensors) were transduced with pulled synaptosomal (P2) extracts from AD brains using lipofectamine 2000. Cultures treated with equal amount of empty liposomes were used as a control. […] Cells were imaged after 24 hrs using automated microscope imaging system (Lionheart FX) equipped with 20× objective and CFP-YFP FRET Image filter cube.
After sixty hours treatment, cells and cell medium were collected. Cells were prepared for flow cytometry and FRET signal was detected using LSRII flow cytometer (BD biosciences). Cells were back gated onto forward scatter versus side scatter to insure a single cell analysis, 5,000 cells were collected within the gate. FRET negative and FRET-positive cell populations were defined as previously described.

nSMase2 = molecular target: T1, nSMase2 (Mus musculus, UniProt Q9JJY3); experiment: Target engagement: nSMase activity in brain homogenates of treated mice; assay type: in vivo, C57BL6 mice; conditions: 100 mg/kg oral gavage, 4 hours
T1 construct: from tissue; host or cells: mouse brain (cortical homogenate)
T1 sequence (Q9JJY3 1-655): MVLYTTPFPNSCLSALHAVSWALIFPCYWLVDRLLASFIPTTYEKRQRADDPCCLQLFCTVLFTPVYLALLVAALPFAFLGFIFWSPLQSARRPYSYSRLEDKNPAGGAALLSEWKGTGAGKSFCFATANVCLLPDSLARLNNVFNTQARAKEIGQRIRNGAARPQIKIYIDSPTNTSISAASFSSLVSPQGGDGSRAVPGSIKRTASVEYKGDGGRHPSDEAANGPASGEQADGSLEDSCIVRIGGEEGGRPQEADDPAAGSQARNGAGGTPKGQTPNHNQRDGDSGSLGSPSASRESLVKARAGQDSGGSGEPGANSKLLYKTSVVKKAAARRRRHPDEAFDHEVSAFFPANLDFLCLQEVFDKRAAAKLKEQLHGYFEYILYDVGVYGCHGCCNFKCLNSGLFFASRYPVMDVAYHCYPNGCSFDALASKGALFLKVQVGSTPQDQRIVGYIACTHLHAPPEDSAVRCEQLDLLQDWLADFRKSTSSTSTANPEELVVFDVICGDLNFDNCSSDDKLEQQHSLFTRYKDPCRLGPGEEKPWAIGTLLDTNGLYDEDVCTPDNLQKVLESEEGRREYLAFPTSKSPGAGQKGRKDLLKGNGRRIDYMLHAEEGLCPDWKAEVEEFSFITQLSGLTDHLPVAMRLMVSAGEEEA
Protocol: Alternatively, mice were treated with the compounds by a parental route and after euthanization the brain is removed and homogenized using 100 mM Tris-HCl pH 7.5, 100 mM sucrose, 100 μM PMSF, 1× protease inhibitor cocktail, and diluted to 2× in reaction buffer prior to the assay and nSMase2 activity is measured. The reaction was started by adding 10 μL of the working solution (100 μM Amplex Red reagent containing 2 U/mL HRP, 0.2 U/mL choline oxidase, 8 U/mL of alkaline phosphatase, and 0.5 mM sphingomyelin) and the progression of the reaction was monitored at 540/590 nm (Ex/Em) for 2 h at 37° C. The activity of nSMase2 at 2 hrs was plotted as percentage of control using PrismGraphPad.
(§1) Brain permeability and target engagement studies were conducted in C57BL/6J mice. […] Drug level evaluation in brain and plasma samples was performed by LC-MS/MS analysis. Brain tissue was homogenized and nSMase2 activity measured as described above.

[2] = Pharmacokinetic / brain permeability study, LC-MS/MS of brain and plasma; assay type: in vivo, C57BL6 mice; conditions: C57BL/6J, mouse, mice, 100 mg/kg oral gavage
Protocol: as §1

inhibition (decrease) of nSMase activity in brain/cortical homogenates vs vehicle (nSMase2): 26.8% | concentration at 4 h ([2]; brain, read-out: level in brain): 135 ± 60.9 ng/g | concentration at 4 h ([2]; plasma, read-out: level in plasma): 8150 ± 2450 ng/mL
SMILES: O=c1[nH]c(=S)[nH]c(-c2ccccc2)c1Cc1c(O)ccc2ccccc12 [cambinol]
FRET-positive tau aggregates, microscopy ([1]; 10 μM, imaged after 24 hrs, vs DMSO (FIG. 3A)): visibly decreased; also recorded: Decrease in the tau aggregation | FRET-positive signal (integrated FRET density), flow cytometry ([1]; 10 uM, sixty hours treatment (FIG. 3B)): significant decrease
